Reference: patent publication US8809545B2, “Aryl pyridine as aldosterone synthase inhibitors” (Novartis AG, priority 2009, dated 2014)

What was measured:
[1] = target: T1, aldosterone synthase (Homo sapiens, UniProt P19099); test: Aldosterone cell secretion in Ang II-stimulated NCI-H295R cells (SPA with anti-aldosterone antibody); format: cell-based; conditions: human adrenocortical carcinoma NCI-H295R cells, 1 μM Ang II, 24 h
T1 construct: host or cells: NCI-H295R
T1 sequence (P19099 25-503): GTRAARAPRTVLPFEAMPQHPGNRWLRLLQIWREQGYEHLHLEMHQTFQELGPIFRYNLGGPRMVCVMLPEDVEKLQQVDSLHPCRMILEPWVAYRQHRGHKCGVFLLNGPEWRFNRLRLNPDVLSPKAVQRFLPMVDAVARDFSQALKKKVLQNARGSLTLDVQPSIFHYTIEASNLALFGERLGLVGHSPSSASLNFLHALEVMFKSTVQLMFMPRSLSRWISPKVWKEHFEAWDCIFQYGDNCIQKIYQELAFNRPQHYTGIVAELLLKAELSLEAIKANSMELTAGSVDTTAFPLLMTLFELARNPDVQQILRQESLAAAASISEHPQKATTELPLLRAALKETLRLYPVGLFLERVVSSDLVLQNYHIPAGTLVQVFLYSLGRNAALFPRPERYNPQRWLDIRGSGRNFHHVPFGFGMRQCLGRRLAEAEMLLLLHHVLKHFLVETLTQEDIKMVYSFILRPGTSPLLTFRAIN
Source text: In particular, the aldosterone synthase inhibitory activities in vitro can be determined by the following assay.
Human adrenocortical carcinoma NCI-H295R cell line was obtained from American Type Culture Collection (Manassas, Va.). Insulin/transferrin/selenium (ITS)-A supplement (100×), DMEM/F-12, antibiotic/antimycotic (100×), and fetal bovine serum (FBS) were purchased from Invitrogen (Carlsbad, Calif.). Anti-mouse PVT scintillation proximity assay (SPA) beads and NBS 96-well plates were obtained from GE Health Sciences (Piscataway, N.J.) and Corning (Acton, Mass.), respectively. Solid black 96-well flat bottom plates were purchased from Costar (Corning, N.Y.). Aldosterone and angiotensin (Ang II) were purchased from Sigma (St. Louis, Mo.). D-[1,2,6,7-^3H(N)]aldosterone was acquired from PerkinElmer (Boston, Mass.). Nu-serum was a product of BD Biosciences (Franklin Lakes, N.J.).
On the following day, cells are rinsed with 100 μL of phosphate-buffered saline (PBS) and incubated with 100 μL of treatment medium containing 1 μM Ang II and a compound at different concentrations in quadruplicate wells at 37° C. for 24 h. At the end of incubation, 50 μL of medium is withdrawn from each well for measurement of aldosterone production by an SPA using mouse anti-aldosterone monoclonal antibodies.
Measurement of aldosterone activity can also be performed using a 96-well plate format. […] Anti-mouse PVT SPA beads (50 μL) are then added to each well and incubated overnight at room temperature prior to counting in a Microbeta plate counter. The amount of aldosterone in each sample is calculated by comparing with a standard curve generated using known quantities of the hormone.
(§1) Inhibition of the release of certain steroids can be used as a measure of the respective enzyme inhibition by the added test compounds. The dose-dependent inhibition of enzymatic activity by a compound is calculated by means of an inhibition plot which is characterized by an IC50.
The inhibition plot is calculated by fitting a 4-parameter logistic function to the raw data points using the least squares method. The equation of the 4-parameter logistic function is calculated as follows: Y=(d−a)/((1+(x/c)b))+a, where: a=minimum data level, b=gradient, I […], d=maximum data level, x=inhibitor concentration.

[2] = target: T2, CYP11B1 (steroid 11 β-hydroxylase) (Homo sapiens, UniProt P15538); test: Cortisol cell secretion in NCI-H295R cells (in vitro inhibitory activity for CYP11B1); format: cell-based; conditions: compound at 1 μM
T2 construct: the NCI-H295R cells have CYP11B1 (steroid 11 β-hydroxylase); host or cells: NCI-H295R
T2 sequence (P15538 25-503): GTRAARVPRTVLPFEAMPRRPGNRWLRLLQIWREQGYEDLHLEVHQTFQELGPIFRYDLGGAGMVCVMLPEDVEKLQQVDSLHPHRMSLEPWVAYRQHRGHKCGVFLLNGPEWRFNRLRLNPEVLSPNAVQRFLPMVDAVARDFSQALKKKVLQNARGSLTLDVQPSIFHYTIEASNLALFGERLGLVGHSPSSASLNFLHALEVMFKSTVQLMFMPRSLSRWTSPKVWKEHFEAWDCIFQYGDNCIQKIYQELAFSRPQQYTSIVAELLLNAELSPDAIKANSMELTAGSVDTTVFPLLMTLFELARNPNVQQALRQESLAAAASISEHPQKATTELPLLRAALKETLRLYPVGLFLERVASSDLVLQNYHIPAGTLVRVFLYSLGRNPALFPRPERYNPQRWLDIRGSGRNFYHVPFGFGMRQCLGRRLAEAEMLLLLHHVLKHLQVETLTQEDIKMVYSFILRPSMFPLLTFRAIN
Source text: The in vitro inhibitory activities for CYP11B1 can be determined by the following assay.
The cell line NCI-H295R was originally isolated from an adrenocortical carcinoma and has been characterized in the literature through the stimulable secretion of steroid hormones and the presence of the enzymes essential for steroidogenesis. Thus, the NCI-H295R cells have CYP11B1 (steroid 11 β-hydroxylase). The cells show the physiological property of zonally undifferentiated human fetal adrenocortical cells which, however, have the capacity to produce the steroid hormones which are formed in the three, phenotypically distinguishable zones in the adult adrenal cortex.
The NCI-H295R cells (American Type Culture Collection, ATCC, Rockville, Md., USA) are grown in Dulbeoco's Modified Eagle'Ham F-12 Medium (DME/F12), which has been supplemented with Ulroser SF Serum (Soprachem, Cergy-Saint-Christophe, France), insulin, transferrin, selenite (I-T-S, Becton Dickinson Biosiences, Franklin lakes, N.J., USA) and antibiotics in 75 cm^2 cell culture vessels at 37° C. and in a 95% air-5% carbon dioxide atmosphere. The cells are subsequently transferred for colony formation into a 24-well incubation vessel. They are cultivated there in DME/F12 medium, which is now supplemented with 0.1% bovine serum instead of Ultroser SF for 24 hours. The experiment is initiated by cultivating the cells in DME/F12 medium which is supplemented with 0.1% bovine serum albumin and test compound, in the presence or absence of cell stimulants, for 72 hours. The test substance is added in a concentration range from 0.2 nanomolar to […]. Cell stimulants which can be used are angiotensin II ([…] or 100 nanomolar), potassium ions (16 millimolar), forskolin (10 micromolar) or a combination of two stimulants.
The excretion of aldosterone, cortisol, corticosterone and estradiol/estrone into the culture medium can be detected and quantified by commercially available, specific monoclonal antibodies in radioimmunoassays in accordance with the manufacturer's instructions.
as §1
The inhibition activity of CYP11B1 production can also be expressed in percentage inhibition (% inhibition) at a given concentration (e.g. % inhibition at 1 μM), which is the cortisol level when cell is treated with the given concentration of a compound of the invention (e.g. concentration of 1 μM) versus the cortisol excretion when cell is free of the compound of the invention. % inhibition cortisol production=[(Y′−X′)/Y′]×100 wherein X′ is the level of cortisol when the cell is treated with a compound of Formula I; and Y′ is the level of cortisol when the cell is free of compound of Formula I.

SMILES	IC50 [1] [nM]	inhibition at 1 µM ([2]; NCI-H295R) [%]	also measured
CCCC(NS(=O)(=O)CC)c1cncc(-c2ccc(C#N)c(Cl)c2)c1 (racemic) [N-(1-(5-(3-chloro-4-cyanophenyl)pyridin-3-yl)butyl)ethanesulfonamide: Racemate, N-(1-(5-(3-chloro-4-cyanophenyl)pyridin-3-yl)butyl)ethanesulfonamide]	132	25	–
CCCC(NS(=O)(=O)CC)c1cncc(-c2ccc(C#N)c(Cl)c2)c1 (single isomer, unassigned) [N-(1-(5-(3-chloro-4-cyanophenyl)pyridin-3-yl)butyl)ethanesulfonamide]	89	26	–
CCS(=O)(=O)NC(C)c1cncc(-c2ccc(C#N)c(Cl)c2)c1 (single isomer, unassigned) [N-(1-(5-(3-chloro-4-cyanophenyl)pyridin-3-yl)ethyl)ethanesul] [N-(1-(5-(3-chloro-4-cyanophenyl)pyridin-3-yl)ethyl)ethanesulfonamide]	–	–	Cortisol cell secretion (% inhibition @ 1 μM) [2]: 50%
CCS(=O)(=O)NC(C)c1cncc(-c2ccc(C#N)c(Cl)c2)c1 (single isomer, unassigned) [N-(1-(5-(3-chloro-4-cyanophenyl)pyridin-3-yl)ethyl)ethanesulfonamide]	–	53	IC50 ([1]; Enantiomer 1): 49 nM; IC50 ([1]; Enantiomer 2): 74 nM
CCS(=O)(=O)NC(C)c1cncc(-c2ccc(C#N)c(OC)c2)c1 (single isomer, unassigned) [N-(1-(5-(4-cyano-3-methoxyphenyl)pyridin-3-yl)ethyl)ethanesu] [N-(1-(5-(4-cyano-3-methoxyphenyl)pyridin-3-yl)ethyl)ethanesulfonamide]	–	–	Cortisol cell secretion (% inhibition @ 1 μM) [2]: 27%
CCS(=O)(=O)NC(C)c1cncc(-c2ccc(C#N)c(OC)c2)c1 (single isomer, unassigned) [N-(1-(5-(4-cyano-3-methoxyphenyl)pyridin-3-yl)ethyl)ethanesulfonamide]	–	38	IC50 ([1]; Enantiomer 1): 64 nM; IC50 ([1]; Enantiomer 2): 140 nM
CCS(=O)(=O)NC(c1cncc(-c2ccc(C#N)c(OC)c2)c1)C1CC1 (single isomer, unassigned) [N-(5-(4-cyano-3-methoxyphenyl)pyridin-3-yl)(cyclopropyl)methyl)ethanesulfonamide]	–	25	IC50 ([1]; Enantiomer 1): 111 nM; IC50 ([1]; Enantiomer 2): 41 nM
CCS(=O)(=O)NC(c1cncc(-c2ccc(C#N)c(OC)c2)c1)C1CC1 (single isomer, unassigned) [N-((5-(4-cyano-3-methoxyphenyl)pyridin-3-yl)(cyclopropyl)met] [N-(5-(4-cyano-3-methoxyphenyl)pyridin-3-yl)(cyclopropyl)methyl)ethanesulfonamide]	–	–	Cortisol cell secretion (% inhibition @ 1 μM) [2]: 44%
N#Cc1ccc(-c2cncc(CN3CCCS3(=O)=O)c2)cc1Cl [2-Chloro-4-[5-(1,1-dioxo-isothiazolidin-2-ylmethyl)-pyridin-3-yl]-benzonitrile]	12	64	–
CCS(=O)(=O)N[C@@H](c1cncc(-c2ccc(C#N)c(Cl)c2)c1)C1CC1 [(R)-N-((5-(3-chloro-4-cyanophenyl)pyridin-3-yl)(cyclopropyl)methyl)ethanesulfonamide]	56	29	–
CCS(=O)(=O)N[C@H](c1cncc(-c2ccc(C#N)c(Cl)c2)c1)C1CC1 [(S)-N-((5-(3-chloro-4-cyanophenyl)pyridin-3-yl)(cyclopropyl)methyl)ethanesulfonamide]	24	38	–
CCS(=O)(=O)NCc1cncc(-c2cc3ccc(Cl)nc3n2C)c1 [Ethanesulfonic acid [5-(6-chloro-1-methyl-1H-pyrrolo[2,3-b]pyridin-2-yl)-pyridin-3-ylmethyl]-amide]	8	–	inhibition at 1 µM [2]: 40%
CCS(=O)(=O)NCc1cncc(-c2cc3cnc(Cl)cc3n2C)c1 [Ethanesulfonic acid [5-(6-chloro-1-methyl-1H-pyrrolo[3,2-c]pyridin-2-yl)-pyridin-3-ylmethyl]-amide]	165	–	inhibition at 1 µM [2]: 15%
CCS(=O)(=O)N(CCO)C(c1cncc(-c2ccc(C#N)c(Cl)c2)c1)C1CC1 (stereo not drawn) [Ethanesulfonic acid {[5-(3-chloro-4-cyano-phenyl)-pyridin-3-yl]-cyclopropyl-methyl}-(2-hydroxy-ethyl)-amide]	20	51	–
CCS(=O)(=O)N(CC(C)C)C(c1cncc(-c2ccc(C#N)c(Cl)c2)c1)C1CC1 (stereo not drawn) [Ethanesulfonic acid {[5-(3-chloro-4-cyano-phenyl)-pyridin-3-yl]-cyclopropyl-methyl}-isobutyl-amide]	98	35	–
CCS(=O)(=O)NC1CC1c1cncc(-c2cccc(Cl)c2Cl)c1 (stereo not drawn) [N-(2-(5-(2,3-dichlorophenyl)pyridin-3-yl)cyclopropyl)ethane-sulfonamide]	3	75	–
CCS(=O)(=O)NC(C)(C)c1cncc(-c2ccc(C#N)c(Cl)c2)c1 [N-(2-(5-(3-chloro-4-cyanophenyl)pyridin-3-yl)propan-2-yl)ethanesulfonamide]	99	66	–
N#Cc1ccc(-c2cncc(NS(=O)(=O)Cc3ccccc3Cl)c2)cc1Cl [N-(5-(3-chloro-4-cyanophenyl)pyridin-3-yl)-1-(2-chlorophenyl)methanesulfonamide]	45	34	–
